Experimental data reported in patent US20210106703A1, “RADIOIMMUNOCONJUGATES IN COMBINATION WITH OTHER DRUGS AS TREATMENT AGAINST NHL” (Nordic Nanovector ASA, priority 2017, published 2021).
Where two headings read alike, the source gives them in different places.

Legend:
[1] = tested on: U2932 cells; assay: Alamar Blue cytotoxicity study; format: cell-based, human; settings: for IC50: Homo sapiens; for Combination Index (Chou-Talalay): 120 h
Description: (§1) Cells were treated with either Humalutin, olaparib or a combination of both and seeded into 96 well-plates. At each time point after treatment, cells were incubated with Alamar Blue (Thermo Fisher, DALL1100) for 4 hours and fluorescence measurements were performed using a multiplate reader Fluoroskan ascent FL to assess cell proliferation and viability. All experiments were done in duplicates using 2 samples in each experiment. Data were normalized to the untreated controls.
(§2) Cells were incubated with 0.25, 0.5, 1, 2.5 or 5 μg/ml of Humalutin in cell culture flasks and incubated at 37° C./5% CO2. After 18-20 hours cells were washed and resuspended in fresh medium. Cell bound activity after washing was measured using a calibrated gamma detector (Cobra II auto-gamma detector, Packard Instrument Company, Meriden, Conn., USA). Cell concentration and viability was also measured after washing using Guava ViaCount Cell Dispersal Reagent for Flow Cytometry (Merck GaA, Darmstadt, Germany) and measured in a Guava EasyCyte 12HT (Merck KGaA, Darmstadt, Germany) to determine how well the cells survived the incubation. Cells were seeded in 96 well plates.
Cells were seeded in 96 well plates pre-coated with from 1 to 100 μM olaparib in 0.2 ml medium and incubated at 37° C./5% CO2 for 72 hours before the cytotoxic effect was measured using alamar blue cell viability assay.
Cells were incubated with either 0, 0.5 μg/ml or 1 μg/ml Humalutin and the same procedure as described before for treatment with humalutin alone and olaparib alone was followed. Concentrations of olaparib used were between 1 and 100 μM.
The Chou-Talalay model was used for synergy calculations using the Compusyn software. R (goodness of fit) was calculated for the individual treatments and should be over 0.90 in in vitro culture experiments in order to use the calculated combination index (CI). The CI is an indication of synergy: 0-0.9 is considered synergy. Synergysm grading was used as described in WO2006004917A2. […]
as §2, with “viability were” for “viability was”, “plates. Alamar blue viability measurements were performed 120 h after seeding.” for “plates.”
Cells were incubated with either 0 (control), 0.5 μg/ml or 1 μg/ml Humalutin for 18 to 20 hours. Cells were then washed and resuspended in fresh medium.

[2] = tested on: SUDHL-6 cells; assay: Alamar Blue cytotoxicity study; format: cell-based, human; settings: for Combination Index (Chou-Talalay): 120 h
Description: as §1, with “venetoclax” for “olaparib”
as §2, with “viability were” for “viability was”, “plates. Alamar blue viability measurements were performed 120 h after seeding.” for “plates.”
Cells were incubated with either 0 (control), 0.5 μg/ml or 1 μg/ml Humalutin for 18 to 20 hours. Cells were then washed and resuspended in fresh medium. Cell bound activity after washing was measured using a calibrated gamma detector (Cobra II auto-gamma detector, Packard Instrument Company, Meriden, Conn., USA). Cell concentration and viability were also measured after washing using Guava ViaCount Cell Dispersal Reagent for Flow Cytometry (Merck GaA, Darmstadt, Germany) and measured in a Guava EasyCyte 12HT (Merck KGaA, Darmstadt, Germany) to determine how well the cells survived the incubation. […] Cytotoxic effect was measured using Alamar blue cell viability assay.
The Chou-Talalay model was used for synergy calculations using the Compusyn software. R (goodness of fit) was calculated for the individual treatments and should be over 0.90 in in vitro culture experiments in order to use the calculated combination index (CI) with confidence. The CI is an indication of synergy: 0-0.9 is considered synergy. Synergism grading was used as described in Table 13, WO2006004917A2.

[3] = tested on: CD133 and CD44 at the DOHH2 cell surface; assay: Expression of stem cell markers after RIT (flow cytometry); format: cell-based, human; settings: DOHH2, 6 MBq/mL for 18 h, up to 9 days post-RIT
Description: Cells were harvested at 0, 2 h, 18 h and each day from 1 d to 10 d of RIT. At each time point, cells were fixed with PFA 4% for 10 minutes, washed twice with PBS and sterilely stored in PBS at 4° C. Stem cell markers were detected with anti-CD133-FITC (clone: AC133, Milteniy) and anti-CD44-APC (clone: IM7, Merck Millipore). 0.5×10^6 cells were saturated for 1 h in PBS-BSA 0.5%. Next cells were centrifuged and incubated with anti-CD133-FITC (2 μL) and anti-CD44-APC (0.125 μg) for 1 h at room temperature in the dark. Finally, cells were rinsed twice and analysed using Gallios® flow cytometer (Beckman Coulter).
For a preliminary study, investigation of the expression of CD133 and CD44 at the surface of cells treated for 18 h with 6 MBq/mL ^177Lu-lilotomab and ^177Lu-rituximab was done.

[4] = tested on: Ramos cells; assay: Immunoreactive fraction, one point modified Lindmo method; format: binding, human; settings: 75 million Ramos cells/ml
Description: The immunoreactivity of the radioimmunoconjugates was measured using Ramos cells and a one point modified Lindmo method. The cell concentration used was 75 million cells/ml. The immunoreactivity of the conjugates was higher than 70%.
The immunoreactivity of the radioimmunoconjugates was measured using Ramos cells and a one point modified Lindmo method (1, 2). The cell concentration used was 75 million cells/ml. The immunoreactivity of the conjugates was higher than 70%.
The immunoreactivity of the radioimmunoconjugates was measured using Ramos cells and a one point modified Lindmo method. The cell concentration used was 75 million cells/ml. The immunoreactivity of the conjugates was higher than 70%).

With CC1(C)CCC(CN2CCN(c3ccc(C(=O)NS(=O)(=O)c4ccc(NCC5CCOCC5)c([N+](=O)[O-])c4)c(Oc4cnc5[nH]ccc5c4)c3)CC2)=C(c2ccc(Cl)cc2)C1 [venetoclax] the IC50 ([1]; read-out: IC50 at 120 h, U2932, 120 h incubation after seeding) was 1140 nM, the IC50 ([1]; U2932, 72 h incubation after seeding, read-out: IC50) was 4150 nM and the “Combination Index (Chou-Talalay)” value ([1]; U2932, drug 10 μM + Humalutin 0.5 μg/ml) was 0.50. For the same molecule, the “Combination Index (Chou-Talalay)” value ([1]; U2932, drug 10 μM + Humalutin 1 μg/ml) was 0.09, the “Combination Index (Chou-Talalay)” value ([1]; U2932, drug 40 μM + Humalutin 0.5 μg/ml) was 0.91 and the “Combination Index (Chou-Talalay)” value ([1]; U2932, drug 40 μM + Humalutin 1 μg/ml) was 0.23. For the same molecule, the “Combination Index (Chou-Talalay)” value ([1]; U2932, drug 80 μM + Humalutin 0.5 μg/ml) was 0.54, the “Combination Index (Chou-Talalay)” value ([1]; U2932, drug 80 μM + Humalutin 1 μg/ml) was 0.12 and the “Combination Index (Chou-Talalay)” value ([1]; U2932, drug 100 μM + Humalutin 0.5 μg/ml) was 0.49. The “Combination Index (Chou-Talalay)” value ([1]; U2932, drug 100 μM + Humalutin 1 μg/ml) was 0.07, the “Combination Index (Chou-Talalay)” value ([1]; U2932, venetoclax 0.25 + Humalutin 0.5 μg/ml) was 0.02 and the “Combination Index (Chou-Talalay)” value ([1]; U2932, venetoclax 0.25 + Humalutin 1 μg/ml) was 0.12. The “Combination Index (Chou-Talalay)” value ([1]; U2932, venetoclax 0.5 + Humalutin 0.5 μg/ml) was 0.01, the “Combination Index (Chou-Talalay)” value ([1]; U2932, venetoclax 0.5 + Humalutin 1 μg/ml) was 0.10 and the “Combination Index (Chou-Talalay)” value ([1]; U2932, venetoclax 1 + Humalutin 0.5 μg/ml) was 0.03. For the same molecule, the “Combination Index (Chou-Talalay)” value ([1]; U2932, venetoclax 1 + Humalutin 1 μg/ml) was 0.08, the “Combination Index (Chou-Talalay)” value ([1]; U2932, venetoclax 2.5 + Humalutin 0.5 μg/ml) was 0.03 and the “Combination Index (Chou-Talalay)” value ([1]; U2932, venetoclax 2.5 + Humalutin 1 μg/ml) was 0.06. For the same molecule, the IC50 ([2]; Homo sapiens, SU-DHL-6, read-out: IC50 at 120 h, SUDHL-6, 120 h incubation after seeding) was 1160 nM, the “Combination Index (Chou-Talalay)” value ([2]; SUDHL-6, venetoclax 0.25 + Humalutin 0.5 μg/ml) was 0.63 and the “Combination Index (Chou-Talalay)” value ([2]; SUDHL-6, venetoclax 0.25 + Humalutin 1 μg/ml) was 0.82. For the same molecule, the “Combination Index (Chou-Talalay)” value ([2]; SUDHL-6, venetoclax 0.5 + Humalutin 0.5 μg/ml) was 0.14, the “Combination Index (Chou-Talalay)” value ([2]; SUDHL-6, venetoclax 0.5 + Humalutin 1 μg/ml) was 0.28 and the “Combination Index (Chou-Talalay)” value ([2]; SUDHL-6, venetoclax 1 + Humalutin 0.5 μg/ml) was 0.71. For the same molecule, the “Combination Index (Chou-Talalay)” value ([2]; SUDHL-6, venetoclax 1 + Humalutin 1 μg/ml) was 0.41, the “Combination Index (Chou-Talalay)” value ([2]; SUDHL-6, venetoclax 2.5 + Humalutin 0.5 μg/ml) was 0.47 and the “Combination Index (Chou-Talalay)” value ([2]; SUDHL-6, venetoclax 2.5 + Humalutin 1 μg/ml) was 0.41.

B1: Lutetium-177 [^177Lu]-lilotomab satetraxetan (conjugate, chains of the INN, looked up)
VH: EIQLQQSGPELVKPGASVKVSCKASGYSFTDYNMYWVKQSHGKSLEWIGYIDPYNGDTTYNQKFKGKATLTVDKSSSTAFIHLNSLTSEDSAVYYCARSPYGHYAMDYWGQGTSVTVSS
VL: DIVMTQSHKLLSTSVGDRVSITCKASQDVSTAVDWYQQKPGQSPKLLINWASTRHTGVPDRFTGSGSGTDYTLTISSMQAEDLALYYCRQHYSTPFTFGSGTKLEIK
modifications: 177Lu satetraxetan chelator conjugate
For B1, the “Proportion of cells expressing CD44 and CD133” value [3] was “strongly increased” and the Immunoreactivity [4] was “higher than 70%”.
